Test results taken from the supplement of paper PMC11061612.

Legend:
Experiment in all cases: Bliss excess, mean over the matrix (fraction); higher = more synergy
[1] = system: CCRF-CEM (T-Lymphoblastic Leukemia)
Summary of the method: (§1)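 Cell lines in DMEM/F12 or RPMI with 10% FBS were plated in 1536-well plates, held 24 hours at 37°C, 5% CO2, then given two-drug dose matrices for 72 hours (DMSO typically 0.2%). Viability was read by CellTiter-Glo 2.0 luminescence and scaled as inhibition from 0 (vehicle wells) to 1 (blank wells). Combination Emax is the second-highest inhibition in the matrix; Bliss excess is observed combination effect minus expected EA + EB − EA·EB, EA and EB being single-agent effects.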

[2] = system: RO82-W-1 (Thyroid Gland Carcinoma)
Summary of the method: as §1

[3] = system: CaR-1 (Colorectal Carcinoma)
Summary of the method: as §1

[4] = system: KELLY (Neuroblastoma)
Summary of the method: as §1

[5] = system: TE-15 (Esophageal Squamous Cell Carcinoma)
Summary of the method: as §1

[6] = system: NCI-H82 (Small Cell Lung Carcinoma)
Summary of the method: as §1

[7] = system: HCC-78 (Lung Adenocarcinoma)
Summary of the method: as §1

[8] = system: COLO-205 (Colorectal Carcinoma)
Summary of the method: as §1

[9] = system: TE-9 (Esophageal Squamous Cell Carcinoma)
Summary of the method: as §1

[10] = system: EC-GI-10 (Esophageal Squamous Cell Carcinoma)
Summary of the method: as §1

[11] = system: OVCA420 (Ovarian Carcinoma)
Summary of the method: as §1

[12] = system: NB10 (Neuroblastoma)
Summary of the method: as §1

[13] = system: DEL (T-Cell Non-Hodgkin's Lymphoma)
Summary of the method: as §1

[14] = system: UM-UC-3 (Bladder Carcinoma)
Summary of the method: as §1

[15] = system: TCCSUP (Bladder Carcinoma)
Summary of the method: as §1

[16] = system: LB831-BLC (Bladder Carcinoma)
Summary of the method: as §1

[17] = system: LS-180 (Colorectal Carcinoma)
Summary of the method: as §1

[18] = system: RC-K8 (B-Cell Non-Hodgkin's Lymphoma)
Summary of the method: as §1

[19] = system: HOS (Osteosarcoma)
Summary of the method: as §1

[20] = system: KP-1N (Pancreatic Carcinoma)
Summary of the method: as §1

SMILES | Bliss excess [1] | Bliss excess [2] | Bliss excess [3] | Bliss excess [4] | Bliss excess [5] | Bliss excess [6] | Bliss excess [7] | Bliss excess [8] | Bliss excess [9] | Bliss excess [10] | Bliss excess [11] | Bliss excess [12] | Bliss excess [13] | Bliss excess [14] | Bliss excess [15] | Bliss excess [16] | Bliss excess [17] | Bliss excess [18] | Bliss excess [19] | Bliss excess [20]
CC1(C)CCC(CN2CCN(c3ccc(C(=O)NS(=O)(=O)c4ccc(NCC5CCOCC5)c([N+](=O)[O-])c4)c(Oc4cnc5[nH]ccc5c4)c3)CC2)=C(c2ccc(Cl)cc2)C1 [Venetoclax] + Cn1cnc2c(F)c(Nc3ccc(Br)cc3Cl)c(C(=O)NOCCO)cc21 [Selumetinib] (first compound max 1 µM, 7x7, partner max 3 µM) | 0.0079 | -0.0552 | -0.0511 | 0.009 | -0.0268 | -0.0125 | -0.0329 | -0.0722 | -0.027 | -0.0293 | -0.045 | 0.0021 | 0.0117 | -0.0445 | -0.0444 | -0.0239 | 0.0538 | -0.0112 | -0.0282 | -0.0176
CC1(C)CCC(CN2CCN(c3ccc(C(=O)NS(=O)(=O)c4ccc(NCC5CCOCC5)c([N+](=O)[O-])c4)c(Oc4cnc5[nH]ccc5c4)c3)CC2)=C(c2ccc(Cl)cc2)C1 [Venetoclax] + CN(C)CCCOc1ccc(-c2ccc3ncc4c(c3c2)n(C2CCOCC2)c(=O)n4C)cn1 [AZD0156] (first compound max 1 µM, 7x7, partner max 1 µM) | 0.0436 | -0.0586 | -0.0201 | 0.0158 | -0.0298 | 0.0295 | 0.0213 | -0.0153 | -0.0213 | 0.0119 | -0.02 | 0.0418 | 0.0011 | 0.0045 | -0.036 | -0.061 | -0.0099 | 0.0282 | -0.033 | -0.0431
CC1(C)CCC(CN2CCN(c3ccc(C(=O)NS(=O)(=O)c4ccc(NCC5CCOCC5)c([N+](=O)[O-])c4)c(Oc4cnc5[nH]ccc5c4)c3)CC2)=C(c2ccc(Cl)cc2)C1 [Venetoclax] + C[C@@H](Nc1cc(F)cc(F)c1)c1cc(C(=O)N(C)C)cc2c(=O)cc(N3CCOCC3)oc12 [AZD8186] (first compound max 1 µM, 7x7, partner max 3 µM) | 0.012 | -0.0455 | -0.0366 | 0.0068 | -0.0307 | -0.0452 | -0.0337 | 0.0279 | -0.0185 | -0.0139 | -0.0285 | -0.0084 | 0.0055 | -0.0164 | -0.0442 | -0.0465 | -0.0286 | 0.018 | -0.0262 | 0.0036
Cc1c2c(nn1C)CSCc1cc(n(C)n1)CSc1cc(c3ccccc3c1)OCCCc1c(C(=O)O)n(C)c3c-2c(Cl)ccc13 [AZD5991] + Cc1cc2ncnn2cc1Nc1ncc2c(n1)n(C1CCOCC1)c(=O)n2C [AZD7648] (first compound max 1 µM, 7x7, partner max 10 µM) | 0.0837 | -0.0503 | -0.0365 | -0.0368 | -0.0325 | 0.0174 | -0.016 | -0.0604 | 0.0162 | -0.0555 | -0.0531 | 0.0047 | 0.0005 | 0.0053 | -0.0203 | -0.034 | -0.0213 | 0.0148 | -0.0036 | -0.0518
C[C@@H](c1ccc2nccn2c1)n1nnc2ncc(-c3cnn(C)c3)nc21 [Savolitinib] + CC1(C)CCC(CN2CCN(c3ccc(C(=O)NS(=O)(=O)c4ccc(NCC5CCOCC5)c([N+](=O)[O-])c4)c(Oc4cnc5[nH]ccc5c4)c3)CC2)=C(c2ccc(Cl)cc2)C1 [Venetoclax] (first compound max 1 µM, 7x7, partner max 1 µM) | -0.0527 | -0.0371 | -0.0617 | -0.0038 | -0.0227 | -0.0467 | -0.0514 | -0.0675 | -0.0307 | -0.0547 | -0.0505 | -0.0389 | -0.0385 | -0.0574 | -0.0551 | -0.0978 | -0.0201 | -0.0489 | -0.0243 | -0.0646
NC1(C(=O)N[C@@H](CCO)c2ccc(Cl)cc2)CCN(c2ncnc3[nH]ccc23)CC1 [Capivasertib] + Cn1cnc2c(F)c(Nc3ccc(Br)cc3Cl)c(C(=O)NOCCO)cc21 [Selumetinib] (first compound max 10 µM, 7x7, partner max 10 µM) | 0.0792 | -0.0063 | 0.0076 | 0.0266 | 0.0234 | -0.131 | -0.009 | -0.0598 | -0.0011 | 0.0744 | 0.0639 | 0.037 | 0.054 | 0.0946 | -0.0385 | -0.133 | -0.0247 | 0.0248 | 0.0007 | 0.0357
CN(CCO)CC[C@H](CSc1ccccc1)Nc1ccc(S(=O)(=O)NC(=O)c2ccc(N3CCC([C@@H](O)c4ccccc4-c4ccc(Cl)cc4)CC3)cc2)cc1S(=O)(=O)C(F)(F)F [AZD4320] + CN(C)CCCOc1ccc(-c2ccc3ncc4c(c3c2)n(C2CCOCC2)c(=O)n4C)cn1 [AZD0156] (first compound max 1 µM, 7x7, partner max 1 µM) | 0.023 | -0.0258 | -0.0727 | 0.077 | -0.0455 | 0.012 | -0.033 | -0.054 | -0.0101 | -0.0333 | -0.0206 | -0.0056 | 0.0265 | -0.0219 | -0.0227 | -0.0403 | -0.0209 | 0.0161 | -0.0317 | -0.0481
CN(CCO)CC[C@H](CSc1ccccc1)Nc1ccc(S(=O)(=O)NC(=O)c2ccc(N3CCC([C@@H](O)c4ccccc4-c4ccc(Cl)cc4)CC3)cc2)cc1S(=O)(=O)C(F)(F)F [AZD4320] + CCN(CCO)CCCOc1ccc2c(Nc3cc(CC(=O)Nc4cccc(F)c4)[nH]n3)ncnc2c1 [AZD2811] (first compound max 1 µM, 7x7, partner max 1 µM) | -0.0228 | 0.0032 | -0.0753 | 0.051 | -0.0393 | 0.0891 | -0.0361 | -0.0154 | 0.03 | 0.0532 | -0.0352 | -0.0097 | -0.124 | 0.0325 | -0.0194 | 0.0234 | -0.0044 | 0.17 | -0.0288 | -0.0317
Cc1c2c(nn1C)CSCc1cc(n(C)n1)CSc1cc(c3ccccc3c1)OCCCc1c(C(=O)O)n(C)c3c-2c(Cl)ccc13 [AZD5991] + Cn1cnc2c(F)c(Nc3ccc(Br)cc3Cl)c(C(=O)NOCCO)cc21 [Selumetinib] (first compound max 1 µM, 7x7, partner max 3 µM) | 0.0383 | -0.0528 | -0.03 | 0.0281 | 0.0114 | -0.0406 | -0.0245 | 0.0145 | -0.0097 | 0.051 | 0.0316 | 0.0122 | 0.0049 | 0.0332 | -0.0066 | -0.018 | 0.0454 | 0.0127 | -0.0261 | -0.029
Cc1c2c(nn1C)CSCc1cc(n(C)n1)CSc1cc(c3ccccc3c1)OCCCc1c(C(=O)O)n(C)c3c-2c(Cl)ccc13 [AZD5991] + CCN(CCO)CCCOc1ccc2c(Nc3cc(CC(=O)Nc4cccc(F)c4)[nH]n3)ncnc2c1 [AZD2811] (first compound max 1 µM, 7x7, partner max 1 µM) | -0.0343 | -0.0642 | -0.0004 | 0.0071 | 0.0649 | 0.103 | 0.0209 | 0.0153 | -0.0235 | 0.156 | -0.0245 | 0.0335 | -0.0295 | 0.0296 | -0.0288 | 0.0076 | 0.0652 | 0.09 | 0.007 | -0.0662
CC1(C)CCC(CN2CCN(c3ccc(C(=O)NS(=O)(=O)c4ccc(NCC5CCOCC5)c([N+](=O)[O-])c4)c(Oc4cnc5[nH]ccc5c4)c3)CC2)=C(c2ccc(Cl)cc2)C1 [Venetoclax] + COc1cc(Nc2ncc3c(n2)-c2ccc(Cl)cc2C(c2c(F)cccc2OC)=NC3)ccc1C(=O)O [Alisertib] (first compound max 1 µM, 7x7, partner max 10 µM) | -0.0493 | -0.0658 | 0.008 | 0.0343 | 0.0102 | 0.0328 | 0.0127 | -0.0172 | 0.0148 | 0.0164 | -0.025 | -0.0052 | 0.0094 | 0.0184 | -0.0341 | -0.0354 | -0.008 | 0.024 | -0.0132 | 0.0194
Cc1c2c(nn1C)CSCc1cc(n(C)n1)CSc1cc(c3ccccc3c1)OCCCc1c(C(=O)O)n(C)c3c-2c(Cl)ccc13 [AZD5991] + C1CN(CCC1(C(=O)N[C@@H](CCO)C2=CC=C(C=C2)Cl)N)C3=NC=NC4=C3C=CN4 [Capivasertib] (first compound max 1 µM, 7x7, partner max 3 µM) | 0.0618 | -0.016 | -0.0295 | 0.0246 | -0.0196 | -0.008 | 0.0056 | -0.023 | 0.0095 | 0.0589 | 0.0186 | -0.0316 | -0.012 | -0.0231 | 0.0229 | 0.0133 | 0.0195 | -0.03 | -0.0083 | 0.0154
